Experiments:
[1] = tested on: conscious telemetered dogs; assay: Systolic blood pressure lowering, oral administration to conscious telemetered dogs; format: in vivo; settings: orally administered at 3 mpk
From the text: Several examples were studied for systolic blood pressure lowering when orally administered to conscious telemetered dogs at 3 mpk (see Data Table 1).

[2] = tested on: isolated rabbit thoracic aorta preparations; assay: Vessel relaxation in isolated rabbit thoracic aorta preparations; format: cell-based; settings: Oryctolagus cuniculus; rabbit aortic rings precontracted with noradrenaline, functional endothelium
Protocol: The ability of the compounds to induce vasorelaxation was tested in vitro in isolated rabbit thoracic aorta preparations (Wanstall J. C. et al., Br. J. Pharmacol., 134:463-472, 2001). Male New Zealand rabbits were anaesthetized with thiopental-Na (50 mg/kg, iv), sacrificed by exsanguinations and then the thorax was opened and the aorta dissected. Aortic ring preparations (4 mm in length) were set up in physiological salt solution (PSS) at 37° C. in small organ chambers (5 ml). The composition of PSS was (mM): NaCl 130, NaHCO3 14.9, KH2PO4 1.2, MgSO4 1.2, HEPES 10, CaCl2, ascorbic acid […] and glucose 1.1 (95% O2/5% CO2; pH 7.4). Each ring was mounted under 2 g passive tension. Isometric tension was recorded with a Grass transducer (Grass FT03) attached to a BIOPAC MP150 System. Preparations were allowed to equilibrate for 1 h, and then contracted submaximally with noradrenaline (NA, 1 μM) and, when the contraction was stable, acetylcholine (ACh, 10 μM) was added. A relaxant response to ACh indicated the presence of a functional endothelium. […] When a stable precontraction was reached, a cumulative concentration-response curve to either of the vasorelaxant agents was obtained in the presence of a functional endothelium. Each arterial ring was exposed to only one combination of inhibitor and vasorelaxant. […]
Example 2 was evaluated for vessel relaxation.

SMILES	Approximate change in systolic blood pressure ([1]; 1-6 h, 3 mg/kg)	Approximate change in systolic blood pressure ([1]; 6-12 h, 3 mg/kg)	Approximate change in systolic blood pressure ([1]; 12-18 h, 3 mg/kg)	EC50 [2]	Approximate change in systolic blood pressure ([1]; 1-6 h)	Approximate change in systolic blood pressure ([1]; 6-12 h)	Approximate change in systolic blood pressure ([1]; 12-18 h)
CCOc1nc2cccc(C(=O)OC(C)OC(=O)[C@@H]3C[C@H](OC)[C@@H](O[N+](=O)[O-])C3)c2n1Cc1ccc(-c2ccccc2-c2nnn[nH]2)cc1 (stereo partly drawn) [Example 2, D1, 1-({[(1R,3S,4S)-3-methoxy-4-(nitrooxy)cyclopentyl]carbonyl}oxy)ethyl 2-ethoxy-1-{[2′-(1H-tetrazol-5-yl)biphenyl-4-yl]methyl}-1H-benzimidazole-7-carboxylate]	−15 mm Hg	−11 mm Hg	−1 mm Hg	–	–	–	–
CCOc1nc2cccc(C(=O)OC(C)OC(=O)[C@@H]3C[C@H](OC)[C@@H](O[N+](=O)[O-])C3)c2n1Cc1ccc(-c2ccccc2-c2nnn[nH]2)cc1 (stereo partly drawn) [Example 2, D2, 1-({[(1R,3S,4S)-3-methoxy-4-(nitrooxy)cyclopentyl]carbonyl}oxy)ethyl 2-ethoxy-1-{[2′-(1H-tetrazol-5-yl)biphenyl-4-yl]methyl}-1H-benzimidazole-7-carboxylate]	−19 mm Hg	−12 mm Hg	−5 mm Hg	> 25 µM	–	–	–
CCCCC(=O)N(Cc1ccc(-c2ccccc2-c2nnn[nH]2)cc1)[C@H](C(=O)O[C@@H](C)OC(=O)[C@@H]1C[C@H](OC)[C@@H](O[N+](=O)[O-])C1)C(C)C [Example 5, (1S)-1-({[(1R,3S,4S)-3-methoxy-4-(nitrooxy)cyclopentyl]carbonyl}oxy)ethyl N-pentanoyl-N-{[2′-(1H-tetrazol-5-yl)biphenyl-4-yl]methyl}-L-valinate]	–	–	–	–	−8 mm Hg	−2 mm Hg	8 mm Hg
CCCCc1nc(Cl)c(C(=O)O[C@H](C)OC(=O)[C@@H]2C[C@H](OC)[C@@H](O[N+](=O)[O-])C2)n1Cc1ccc(-c2ccccc2-c2nnn[nH]2)cc1 [Example 7]	–	–	–	–	−9 mm Hg	−1 mm Hg	2 mm Hg

— patent US8293777B2, “Angiotensin II receptor antagonists” (Merck Sharp & Dohme, Corp., priority 2008, dated 2012)
